pEC50: −log10 of the molar value.
Tests used:
Type in all cases: cell-based, C. elegans
[1] = target: LGC-54 (Caenorhabditis elegans, UniProt O17041); experiment: Two-electrode voltage clamp, agonist-evoked currents in Xenopus oocytes expressing LGC-54
Text: We aimed to deorphanize C. elegans LGICs without known ligands, focusing on 5 genes in the putative monoamine-gated group: lgc-50; lgc-51; lgc-52; lgc-54; and lgc-56 (previously named ggr-3). Using heterologous overexpression in Xenopus oocytes and two-electrode voltage clamp recordings, we measured channel activity evoked by application of 11 monoamines and other neurotransmitters.
(§1) Defolliculated Xenopus laevis oocytes were obtained from EcoCyte Bioscience (Dortmund, Germany) and maintained in ND96 (in mM: 96 NaCl, 1 MgCl2, 5 HEPES, 1.8 CaCl2, 2 KCl) solution at 16°C for 3-5 days.
(§2) 5'-capped cRNA was synthesized in vitro using the T3 mMessage mMachine transcription kit according to manufacturer’s protocol (Thermo Fischer Scientific, CA, USA). RNA was then purified using the GeneJET RNA purification kit (Thermo Fischer Scientific, CA, USA) prior to cRNA injection. Defolliculated Xenopus oocytes were placed individually into 96 well plates and injected with 50nL of 500ng/μL RNA using the Roboinject system (Multi Channel Systems GmbH, Reutlingen, Germany). When two constructs were injected the total RNA concentration remained 500ng/μL, with a 1:1 ratio of the components. Injected oocytes were incubated at 16°C in ND96 until the day of recording, typically between 3-5 days post injection.
Two-electrode voltage clamp recordings were carried out using the Robocyte2 recording system or a manual TEVC set up, using an OC-725D amplifier (Multi Channel Systems, Reutlingen, Germany) and paired with a custom-made recording chamber and agar bridges from reference and bath electrodes. Glass electrodes were pulled on a P-1000 Micropipette Puller (Sutter, Ca, USA) with a resistance ranging from 0.7-2 MΩ, pipettes, containing AgCl wires, were backfilled with a 3 M KCl solution for manual recordings and 1.5M KCl and 1 M acetic acid for Robocyte2 recordings. Oocytes were clamped at −60mV unless stated otherwise. Continuous recordings were taken during application of agonists and antagonists at 500 Hz. Data was recorded using WinWCP or RoboCyte2 control software, manual data was filtered at 10 Hz.
Dose response curves were calculated from the peak current during a 10 s agonist stimulation in ND96 solution, with a 60 s ND96 wash in between doses. Data was gathered over at least two occasions, using different batches of oocytes. Normalized dose response data was fitted to a nonlinear curve using a four parameters variable slope and the EC50 and Hill slope was calculated. All further recordings were carried out with the agonist at its EC50 concentration unless stated otherwise. Ion selectivity was determined using a voltage ramp protocol of 20mV/s ranging from −80mV to +60mV in the presence or absence of the primary agonist in three different solutions: ND96, NMDG (Na^+ free) and Na Gluconate (low Cl^-) solutions. Normalized ramp curves were fitted to a linear regression line and the x intercept was compared between solutions to calculate an average Erev from 4-5 oocytes. Antagonist dose response curves were calculated from the peak current during a 10 s agonist + antagonist stimulation in ND96 solution, with the agonist concentration remaining constant. Repeated agonist stimulus protocols were carried out by measuring the peak current during a 10 s agonist stimulation at three wash intervals, 10 s, 30 s and 60 s. Kinetic measurements were calculated from a 60 s agonist perfusion. Python scripts for TEVC analysis can be found at on GitHub at hiris25/TEVC-analysis-scripts and on Zenodo https://doi.org/10.5281/zenodo.5095181.
Dose response and antagonist response curves were generated using custom-built python scripts (key resources table), which combined data from multiple recordings and normalized data by calculating I/Imax for each oocyte.

[2] = target: T1, LGC-50 Δ363-379 (Caenorhabditis elegans, UniProt P41849, DEL363-379); experiment: Two-electrode voltage clamp, 5-HT evoked dose response, LGC-50 deletion mutant Δ363-379
T1 construct: Plasmid: KSM: lgc-50 (cDNA, Δ363-379); expressed in transfected cells; host or cells: Xenopus laevis oocytes injected with cRNA (plasmid pIH142)
Protocol: To identify such domains, we tested the effects of deletion mutations in the LGC-50 M3/4 loop (Figure 5A).
as §1
5'-capped cRNA was synthesized in vitro using the T3 mMessage mMachine transcription kit according to manufacturer’s protocol (Thermo Fischer Scientific, CA, USA). RNA was then purified using the GeneJET RNA purification kit (Thermo Fischer Scientific, CA, USA) prior to cRNA injection. […]
(§3) Two-electrode voltage clamp recordings were carried out using the Robocyte2 recording system or a manual TEVC set up, using an OC-725D amplifier (Multi Channel Systems, Reutlingen, Germany) and paired with a custom-made recording chamber and agar bridges from reference and bath electrodes. […] Data was recorded using WinWCP or RoboCyte2 control software, manual data was filtered at 10 Hz.
Dose response curves were calculated from the peak current during a 10 s agonist stimulation in ND96 solution, with a 60 s ND96 wash in between doses. […] Normalized dose response data was fitted to a nonlinear curve using a four parameters variable slope and the EC50 and Hill slope was calculated. […] Kinetic measurements were calculated from a 60 s agonist perfusion. […]

[3] = target: T2, LGC-50:MOD-1(363-397) (Caenorhabditis elegans, UniProt P41849); experiment: Two-electrode voltage clamp, 5-HT evoked dose response, LGC-50:MOD-1(363-397) chimera; settings: Xenopus oocytes, TEVC
T2 sequence (P41849 with tags, fused parts or gaps): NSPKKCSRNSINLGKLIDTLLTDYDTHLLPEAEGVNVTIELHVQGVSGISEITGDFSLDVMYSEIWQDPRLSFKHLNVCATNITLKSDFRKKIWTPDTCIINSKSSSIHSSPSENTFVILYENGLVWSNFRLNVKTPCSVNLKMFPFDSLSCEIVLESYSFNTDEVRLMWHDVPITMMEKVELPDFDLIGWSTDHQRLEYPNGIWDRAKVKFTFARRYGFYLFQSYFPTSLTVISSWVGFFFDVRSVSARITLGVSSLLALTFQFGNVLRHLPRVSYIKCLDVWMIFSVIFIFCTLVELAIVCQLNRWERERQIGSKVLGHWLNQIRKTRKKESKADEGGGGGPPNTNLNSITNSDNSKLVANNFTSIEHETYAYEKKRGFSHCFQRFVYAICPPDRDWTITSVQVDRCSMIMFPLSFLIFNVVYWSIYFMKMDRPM
T2 sequence (Q9GQ00 363-397 partner): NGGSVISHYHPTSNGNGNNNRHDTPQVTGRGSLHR
Protocol: as §1
as §2, with “When two constructs were injected the total RNA concentration remained 500ng/μL, with a 1:1 ratio of the components. Injected oocytes were incubated at 16°C in ND96 until the day of recording, typically between 3-5 days post injection.” left out
as §3
Dose response curves were calculated from the peak current during a 10 s agonist stimulation in ND96 solution, with a 60 s ND96 wash in between doses. […] Normalized dose response data was fitted to a nonlinear curve using a four parameters variable slope and the EC50 and Hill slope was calculated. […]

Sequence of LGC-54 (O17041 entry or part of it): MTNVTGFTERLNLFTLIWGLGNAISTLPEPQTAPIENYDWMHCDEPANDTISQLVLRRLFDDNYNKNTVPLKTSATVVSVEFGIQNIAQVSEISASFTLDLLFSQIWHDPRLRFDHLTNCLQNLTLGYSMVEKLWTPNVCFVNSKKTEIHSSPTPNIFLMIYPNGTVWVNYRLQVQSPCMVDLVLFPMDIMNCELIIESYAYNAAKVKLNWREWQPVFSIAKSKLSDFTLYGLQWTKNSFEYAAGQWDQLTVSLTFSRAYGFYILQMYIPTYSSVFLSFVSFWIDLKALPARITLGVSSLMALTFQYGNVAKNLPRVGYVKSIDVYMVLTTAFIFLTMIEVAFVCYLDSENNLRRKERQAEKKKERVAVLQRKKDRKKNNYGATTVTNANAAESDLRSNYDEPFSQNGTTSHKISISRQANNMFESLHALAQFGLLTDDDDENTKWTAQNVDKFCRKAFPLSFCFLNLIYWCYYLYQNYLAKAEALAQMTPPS
T1 sequence (P41849 other isoform, or with tags, fused parts or gaps DEL363-379): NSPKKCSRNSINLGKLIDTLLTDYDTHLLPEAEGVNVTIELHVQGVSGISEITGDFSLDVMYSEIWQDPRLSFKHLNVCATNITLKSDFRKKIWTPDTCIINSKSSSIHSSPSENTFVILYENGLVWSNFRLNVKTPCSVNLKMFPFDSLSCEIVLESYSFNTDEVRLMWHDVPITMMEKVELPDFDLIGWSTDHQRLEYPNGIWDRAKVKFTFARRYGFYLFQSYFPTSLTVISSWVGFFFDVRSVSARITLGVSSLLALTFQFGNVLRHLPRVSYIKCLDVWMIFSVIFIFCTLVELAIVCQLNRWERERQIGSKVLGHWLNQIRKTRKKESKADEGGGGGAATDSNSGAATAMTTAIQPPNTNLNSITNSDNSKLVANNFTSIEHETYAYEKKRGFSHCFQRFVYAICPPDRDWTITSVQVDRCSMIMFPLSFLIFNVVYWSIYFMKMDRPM

NCCc1c[nH]c2ccc(O)cc12 [5-HT, serotonin]
pEC50 ([1]; Xenopus oocytes, TEVC, current normalized to Imax, Hill equation with variable slope, read-out: EC50, agonist-evoked dose response, LGC-54): 4.03
Channel activation in ligand screen, LGC-54 ([1]; ligands screened at 100 μM, oocytes clamped at −60 mV): responded to 5-HT at high concentrations
pEC50 [2]: 6.03
pEC50 [3]: 6.01
